Results: patent US8188139B2, “Heterocyclic-substituted phenyl methanones” (Hoffman-La Roche Inc., priority 2005, dated 2012)

Target: T1, mGlyT-1b (Mus musculus, UniProt P28571)
T1 construct: host or cells: Flp-in-CHO
T1 sequence (P28571 1-651 isoform P28571-2): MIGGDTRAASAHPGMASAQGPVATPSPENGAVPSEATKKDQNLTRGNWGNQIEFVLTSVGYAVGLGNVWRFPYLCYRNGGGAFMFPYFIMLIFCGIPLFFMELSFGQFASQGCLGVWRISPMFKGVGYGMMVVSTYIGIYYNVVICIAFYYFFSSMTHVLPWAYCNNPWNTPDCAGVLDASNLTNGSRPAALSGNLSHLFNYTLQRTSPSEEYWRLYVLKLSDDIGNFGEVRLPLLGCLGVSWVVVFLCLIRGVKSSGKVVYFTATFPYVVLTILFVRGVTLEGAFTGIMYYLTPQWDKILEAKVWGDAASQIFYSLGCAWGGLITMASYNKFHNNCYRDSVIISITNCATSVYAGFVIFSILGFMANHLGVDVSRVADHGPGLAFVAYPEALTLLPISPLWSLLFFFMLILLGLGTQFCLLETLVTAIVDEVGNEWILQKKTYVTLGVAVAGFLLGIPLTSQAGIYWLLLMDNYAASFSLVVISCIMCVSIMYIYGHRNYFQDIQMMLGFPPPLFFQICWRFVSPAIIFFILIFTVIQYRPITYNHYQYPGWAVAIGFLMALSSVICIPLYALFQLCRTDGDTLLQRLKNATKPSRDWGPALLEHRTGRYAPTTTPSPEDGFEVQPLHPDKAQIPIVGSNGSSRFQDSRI
Assay: Glycine uptake inhibition assay (mGlyT-1b)
Format: cell-based
Details: inhibition of [3H]-glycine uptake in Flp-in-CHO cells transfected with mGlyT-1b cDNA; 20 min preincubation at 22° C.; read-out: IC50 (μM) at GlyT-1
Procedure: DMEM complete medium: Nutrient mixture F-12 (Gibco Life-technologies), fetal bovine serum (FBS) 5%, (Gibco life technologies), Penicillin/Streptomycin1% (Gibco life technologies), Hygromycin 0.6 mg/ml (Gibco life technologies), Glutamine 1 mM Gibco life technologies)
Uptake buffer (UB): 150 mM NaCl, 10 mM Hepes-Tris, pH 7.4, 1 mM CaCl2, 2.5 mM KCl, 2.5 mM MgSO4, 10 mM (+) D-glucose.
Flp-in™-CHO (Invitrogen Cat n^o R758-07) cells stably transfected with mGlyT1b cDNA.
Glycine Uptake Inhibition Assay (mGlyT-1b)
On day 1 mammalian cells, (Flp-in™-CHO), transfected with mGlyT-1b cDNA, were plated at the density of 40,000 cells/well in complete F-12 medium, without hygromycin in 96-well culture plates. On day 2, the medium was aspirated, and the cells were washed twice with uptake buffer (UB). The cells were then incubated for 20 min at 22° C. with either (i) no potential competitor, (ii) 10 mM non-radioactive glycine, (iii) a concentration of a potential inhibitor. A range of concentrations of the potential inhibitor was used to generate data for calculating the concentration of inhibitor resulting in 50% of the effect (e.g. IC50, the concentration of the competitor inhibiting glycine uptake of 50%). A solution was then immediately added containing [^3H]-glycine 60 nM (11-16 Ci/mmol) and 25 μM non-radioactive glycine. The plates were incubated with gentle shaking, and the reaction was stopped by aspiration of the mixture and washing (three times) with ice-cold UB. The cells were lysed with scintillation liquid, shaken 3 hours, and the radioactivity in the cells was counted using a scintillation counter.

Row | Compound | IC50
1 | Cc1cc(-c2ccc3c(c2)CN(C(=O)c2cc(S(C)(=O)=O)ccc2O[C@@H](C)C(F)(F)F)C3)ccn1 [Example 169, [5-Methanesulfonyl-2-((S)-2,2,2-trifluoro-1-methyl-ethoxy)-phenyl]-[5-(2-methyl-pyridin-4-yl)-1,3-dihydro-isoindol-2-yl]-methanone] | 0.003 µM
2 | Cc1cc(-c2ccc3c(c2)CN(C(=O)c2cc(S(C)(=O)=O)ccc2O[C@@H](C)C(F)(F)F)C3)cs1 [Example 170, [5-Methanesulfonyl-2-((S)-2,2,2-trifluoro-1-methyl-ethoxy)-phenyl]-[5-(5-methyl-thiophen-3-yl)-1,3-dihydro-isoindol-2-yl]-methanone] | 0.048 µM
3 | COc1cc2c(cc1Cl)CN(C(=O)c1cc(S(C)(=O)=O)ccc1OCC(C)C)C2 [Example 221, (5-Chloro-6-methoxy-1,3-dihydro-isoindol-2-yl)-(2-isobutoxy-5-methanesulfonyl-phenyl)-methanone] | 0.022 µM
4 | C[C@H](Oc1ccc(S(C)(=O)=O)cc1C(=O)N1Cc2cc(F)c(C(F)(F)F)cc2C1)C(F)(F)F [Example 224, (5-Fluoro-6-trifluoromethyl-1,3-dihydro-isoindol-2-yl)-[5-methanesulfonyl-2-((S)-2,2,2-trifluoro-1-methyl-ethoxy)-phenyl]-methanone] | 0.019 µM
5 | CC(C)COc1ccc(S(C)(=O)=O)cc1C(=O)N1Cc2cc(Cl)c(N3CCOCC3)cc2C1 [Example 248, (5-Chloro-6-morpho-lin-4-yl-1,3-dihydro-isoindol-2-yl)-(2-isobutoxy-5-methanesulfonyl-phenyl)-methanone] | 0.026 µM
6 | CS(=O)(=O)c1ccc(OCC2CCC2)c(C(=O)N2Cc3cc(Cl)c(N4CCOCC4)cc3C2)c1 [Example 249, (5-Chloro-6-morpho-lin-4-yl-1,3-dihydro-isoindol-2-yl)-(2-cyclobutylmethoxy-5-methanesulfonyl-phenyl)-methanone] | 0.022 µM
7 | CS(=O)(=O)c1ccc(-c2ccc(F)cc2)c(C(=O)N2Cc3cc(Cl)c(N4CCOCC4)cc3C2)c1 [Example 256, (5-Chloro-6-morpho-lin-4-yl-1,3-dihydro-isoindol-2-yl)-(4′-fluoro-4-methane-sulfonyl-biphenyl-2-yl)-methanone] | 0.032 µM
8 | C[C@H](Oc1ccc(S(C)(=O)=O)cc1C(=O)N1Cc2ccc(C3CCOCC3)cc2C1)C(F)(F)F [Example 269, [5-Methanesulfonyl-2-((S)-2,2,2-trifluoro-1-methyl-ethoxy)-phenyl]-[5-(tetrahydro-pyran-4-yl)-1,3-dihydro-isoindol-2-yl]-methanone] | 0.014 µM
9 | CC(C)COc1ccc(S(C)(=O)=O)cc1C(=O)N1Cc2ccc(C3CCOCC3)cc2C1 [Example 270, (2-Isobutoxy-5-methanesulfonyl-phenyl)-[5-(tetrahydro-pyran-4-yl)-1,3-dihydro-isoindol-2-yl]-methanone] | 0.035 µM
10 | CC(C)(C)COc1ccc(S(C)(=O)=O)cc1C(=O)N1Cc2ccc(C3CCOCC3)cc2C1 [Example 273, [2-(2,2-Dimethyl-propoxy)-5-methane-sulfonyl-phenyl]-[5-(tetrahydro-pyran-4-yl)-1,3-dihydro-isoindol-2-yl]-methanone] | 0.047 µM
11 | CS(=O)(=O)c1ccc(-c2ccc(F)cc2)c(C(=O)N2Cc3ccc(C4CCOCC4)cc3C2)c1 [Example 283, (4′-Fluoro-4-methanesulfonyl-biphenyl-2-yl)-[5-(tetrahydro-pyran-4-yl)-1,3-dihydro-isoindol-2-yl]-methanone] | 0.016 µM

The next lines start with the values.

Row | IC50 | Compound
12 | 0.03 µM | C[C@H](Oc1ccc(S(C)(=O)=O)cc1C(=O)N1Cc2ccc(-c3nccs3)cc2C1)C(F)(F)F [Example 172, [5-Methanesulfonyl-2-((S)-2,2,2-trifluoro-1-methyl-ethoxy)-phenyl]-(5-thiazol-2-yl-1,3-dihydro-isoindol-2-yl)-methanone]
13 | 0.019 µM | CS(=O)(=O)c1ccc(-c2ccccc2)c(C(=O)N2CCc3c(C#N)cccc32)c1 [Example 204, 1-(4-Methanesulfonyl-biphenyl-2-carbonyl)-2,3-dihydro-1H-indole-4-carbonitrile]
14 | 0.046 µM | COC(=O)c1cccc2c1CCN2C(=O)c1cc(S(C)(=O)=O)ccc1O[C@@H](C)C(F)(F)F [Example 205, 1-[5-Methanesulfonyl-2-((S)-2,2,2-trifluoro-1-methyl-ethoxy)-benzoyl]-2,3-dihydro-1H-indole-4-carboxylic acid methyl ester]
15 | 0.041 µM | COC(=O)c1cccc2c1CCN2C(=O)c1cc(S(C)(=O)=O)ccc1OC(C)C [Example 206, 1-(2-Isopropoxy-5-methanesulfonyl-benzoyl)-2,3-dihydro-1#H!-indole-4-carboxylic acid methyl ester]
16 | 0.034 µM | C[C@H](Oc1ccc(S(C)(=O)=O)cc1C(=O)N1CCc2c(Br)cccc21)C(F)(F)F [Example 211, (4-Bromo-2,3-dihydro-indol-1-yl)-[5-methanesulfonyl-2-((S)-2,2,2-trifluoro-1-methyl-ethoxy)-phenyl]-methanone]
17 | 0.037 µM | CCSc1cc2c(cc1C(F)(F)F)CN(C(=O)c1cc(S(C)(=O)=O)ccc1O[C@@H](C)C(F)(F)F)C2 [Example 217, (5-Ethylsulfanyl-6-trifluoromethyl-1,3-dihydro-isoindol-2-yl)-[5-methanesulfonyl-2-((S)-2,2,2-trifluoro-1-methyl-ethoxy)-phenyl]-methanone]
18 | 0.04 µM | COc1cc2c(cc1Cl)CN(C(=O)c1cc(S(C)(=O)=O)ccc1O[C@H](C)C(F)(F)F)C2 [Example 218, (5-Chloro-6-methoxy-1,3-dihydro-isoindol-2-yl)-[5-methane-sulfonyl-2-((R)-2,2,2-trifluoro-1-methyl-ethoxy)-phenyl]-methanone]
19 | 0.0456 µM | CCOc1cc2c(cc1C(F)(F)F)CN(C(=O)c1cc(S(C)(=O)=O)ccc1OC(C)C)C2 [Example 240]
20 | 0.033 µM | CS(=O)(=O)c1ccc(-c2ccccc2)c(C(=O)N2Cc3cc(Cl)c(N4CCOCC4)cc3C2)c1 [Example 252, (5-Chloro-6-morpho-lin-4-yl-1,3-dihydro-isoindol-2-yl)-(4-methanesulfonyl-biphenyl-2-yl)-methanone]
21 | 0.017 µM | CS(=O)(=O)c1ccc(-c2cccc(F)c2)c(C(=O)N2Cc3cc(Cl)c(N4CCOCC4)cc3C2)c1 [Example 255, (5-Chloro-6-morpho-lin-4-yl-1,3-dihydro-isoindol-2-yl)-(3′-fluoro-4-methane-sulfonyl-biphenyl-2-yl)-methanone]
22 | 0.028 µM | CC(C)Oc1ccc(S(C)(=O)=O)cc1C(=O)N1Cc2ccc(C3CCOCC3)cc2C1 [Example 268, (2-Isopropoxy-5-methanesulfonyl-phenyl)-[5-(tetrahydro-pyran-4-yl)-1,3-dihydro-isoindol-2-yl]-methanone]
23 | 0.029 µM | CS(=O)(=O)c1ccc(OCC2CC2)c(C(=O)N2Cc3ccc(C4CCOCC4)cc3C2)c1 [Example 271, (2-Cyclopropyl-methoxy-5-methane-sulfonyl-phenyl)-[5-(tetrahydro-pyran-4-yl)-1,3-dihydro-isoindol-2-yl]-methanone]
24 | 0.034 µM | CS(=O)(=O)c1ccc(OCC2CCC2)c(C(=O)N2Cc3ccc(C4CCOCC4)cc3C2)c1 [Example 272, (2-Cyclobutyl-methoxy-5-methane-sulfonyl-phenyl)-[5-(tetrahydro-pyran-4-yl)-1,3-dihydro-isoindol-2-yl]-methanone]
25 | 0.043 µM | C[C@H](Oc1ccc(S(C)(=O)=O)cc1C(=O)N1Cc2ccc(N3CCCC(F)(F)C3)cc2C1)C(F)(F)F [Example 287, [5-(3,3-Difluoro-piperidin-1-yl)-1,3-dihydro-isoindol-2-yl]-[5-methanesulfonyl-2-((S)-2,2,2-trifluoro-1-methyl-ethoxy)-phenyl]-methanone]
26 | 0.022 µM | C[C@H](Oc1ccc(S(C)(=O)=O)cc1C(=O)N1Cc2ccc(CC(F)(F)F)cc2C1)C(F)(F)F [Example 290, [5-Methanesulfonyl-2-((S)-2,2,2-trifluoro-1-methyl-ethoxy)-phenyl]-[5-(2,2,2-tri-fluoro-ethyl)-1,3-dihydro-isoindol-2-yl]-methanone]
